The text below walks through data of patent US8691817B2, “Sulfonic amide and sulfoximine-substituted diaryl-dihydropyrimidinones and usage thereof” (Bayer Intellectual Property GmbH, priority 2009, dated 2014).

In one series the test system is rat hepatocytes. The series can be described thus: Hepatocyte assay to determine the metabolic stability. The note with it: for Fmax, maximum possible bioavailability after oral administration (well-stirred): rat. In kind it is in vitro ADME. The protocol: Seven samples of the incubation solution are taken in a fixed time pattern for the […] analysis in order to determine the half-life (i.e. the degradation) of the compound in each case. Various clearance parameters (CL) and Fmax values are calculated from this half-life (see below).
The Cl and Fmax values represent a measure of the phase 1 and phase 2 metabolism of the compounds in the hepatocytes. In order to minimize the influence of the organic solvent on the enzymes in the incubation mixtures, this concentration is generally limited to 1% (acetonitrile) or 0.1% (DMSO).
A cell count for hepatocytes in the liver of 1.1*10^8 cells/g of liver is used for calculation for all species and breeds.
The calculated parameters and their meaning are: • Fmax well-stirred [%] maximum possible bioavailability after oral administration • Calculation: (1-CLblood well-stirred/QH)*100 • CLblood well-stirred [L/(h*kg)] calculated blood clearance (well-stirred model) • Calculation: (QH*CL′intrinsic)/(QH+CL′intrinsic) • CL′intrinsic [ml/(min*kg] maximum ability of the liver (of the hepatocytes) to metabolize a compound (on the assumption that the hepatic blood flow is not rate-limiting) • Calculation: CL′intrinsic, apparent*species-specific hepatocyte count [1.1* 10^8/g of liver]*species-specific liver weight [g/kg] • CL′intrinsic, apparent [ml/(min*mg)] normalizes the elimination constant by dividing it by the hepatocyte cell count x (x*10^6/ml) employed • Calculation: ke1 [1/min]/(cell count [x*10^6]/incubation volumes [ml]) • (QH=species-specific hepatic blood flow).

Series [1] is described as follows: Determination of the solubility in PBS buffer pH 6.5. The class given is physicochemical. As to conditions: 20° C. The method, then:
B-7. Determination of the Solubility Reagents Required: • PBS buffer pH 6.5: 90.00 g of NaCl p.a. […] Preparation of the Starting Solution (Original Solution):
10 μl of the original solution are transferred into a microtiter plate, and 1000 μl of PBS buffer pH 6.5 are added.
From each of the sample solutions, 100 μl of the supernatant are removed and diluted 1:5 and 1:100 with DMSO. From each dilution, a sample is transferred into a vessel suitable for HPLC analysis.
The samples are analysed by RP-HPLC. Quantification is carried out using a two-point calibration curve of the test compound in DMSO. The solubility is expressed in mg/liter. Analysis sequence: 1) calibration solution […]; 2) calibration solution 20 μg/ml; 3) sample solution 1:5; 4) sample solution 1:100.

For series [2], the target named is T1, human neutrophil elastase (HNE) (Homo sapiens, UniProt P08246).
T1 construct: purchased Serva, Heidelberg
T1 sequence (P08246 30-267): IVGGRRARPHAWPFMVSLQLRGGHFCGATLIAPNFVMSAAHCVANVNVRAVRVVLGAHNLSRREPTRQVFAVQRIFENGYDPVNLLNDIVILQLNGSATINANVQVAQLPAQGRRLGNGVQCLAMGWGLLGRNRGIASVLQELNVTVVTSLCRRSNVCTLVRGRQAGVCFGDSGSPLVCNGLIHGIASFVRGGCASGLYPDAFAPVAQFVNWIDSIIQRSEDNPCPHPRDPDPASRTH
The series can be described thus: In vitro HNE inhibition assay. The class given is biochemical. The note with it: HNE concentration of 80 pM; substrate MeOSuc-Ala-Ala-Pro-Val-AMC; 37° C., 2 hours. The protocol: The potency of the compounds of the invention is ascertained in an in vitro inhibition assay. The HNE-mediated amidolytic cleavage of a suitable peptide substrate leads in this connection to an increase in the fluorescent light. The signal intensity of the fluorescent light is directly proportional to the enzyme activity.
Enzyme (80 pM HNE; from Serva, Heidelberg) and substrate (20 μM MeOSuc-Ala-Ala-Pro-Val-AMC; from Bachem, Weil am Rhein) are incubated in an assay volume of in total 50 μl of assay buffer (0.1 M HEPES pH 7.4, 0.5 M NaCl, 0.1% w/v BSA, 1% v/v DMSO) in a 384-well microtiter plate in the presence and absence of the test substance at 37° C. for 2 hours.

pIC50: −log10 of the molar value. Converted amounts (≈) assume the structure as drawn. Where only a bound is given, the exact number is not on record here.

One may read the Solubility as how much of the substance goes into solution per volume. Take `CC1=C(C#N)[C@@H](c2ccc(C#N)cc2S(C)(=N)=O)N(C)C(=O)N1c1cccc(C(F)(F)F)c1` (mixture of isomers) [Example 38, (SS)-(4S)-4-[4-Cyano-2-(S-methylsulfonimidoyl)phenyl]-3,6-dimethyl-2-oxo-1-[3-(trifluoromethyl)phenyl]-1,2,3,4-tetrahydropyrimidine-5-carbonitrile or (RS)-(4S)-4-[4-cyano-2-(S-methylsulfonimidoyl)phenyl]-3,6-dimethyl-2-oxo-1-[3-(trifluoromethyl)phenyl]-1,2,3,4-tetrahydropyrimidine-5-carbonitrile]: in the series with rat hepatocytes (after incubation with rat hepatocytes), the “CLblood, calculated blood clearance (well-stirred)” value (“CLblood, calculated blood clearance” for short) is 0 mL/min/kg. In series [1] (24 hours), this molecule displayed a Solubility of 300 µg/mL (≈ 634 µM).

As a reminder, the pIC50 is −log10 of the IC50, conventionally taken in molar units. A higher pIC50 goes with a small IC50. `CC1=C(C#N)[C@@H](c2ccc(C#N)cc2S(C)(=N)=O)NC(=O)N1c1cccc(C(F)(F)F)c1` (mixture of isomers) [Example 41, (SS)-(4S)-4-[4-Cyano-2-(S-methylsulfonimidoyl)phenyl]-6-methyl-2-oxo-1-[3-(trifluoromethyl)phenyl]-1,2,3,4-tetrahydropyrimidine-5-carbonitrile or (RS)-(4S)-4-[4-cyano-2-(S-methylsulfonimidoyl)phenyl]-6-methyl-2-oxo-1-[3-(trifluoromethyl)phenyl]-1,2,3,4-tetrahydropyrimidine-5-carbonitrile]: in the series on rat hepatocytes (hepatocytes), the “CLblood, calculated blood clearance” value is 0 mL/min/kg. In addition, the “Fmax, maximum possible bioavailability after oral administration (well-stirred)” value (from here on “Fmax, maximum possible bioavailability”) in the series on rat hepatocytes is given as 100%. This molecule gave a pIC50 in series [2] of 9.05.

Consider `CC1=C(C#N)[C@@H](c2ccc(C#N)cc2S(N)(=O)=O)NC(=O)N1c1cccc(C(F)(F)F)c1` [Example 1, 5-Cyano-2-{(4S)-5-cyano-6-methyl-2-oxo-1-[3-(trifluoromethyl)phenyl]-1,2,3,4-tetrahydropyrimidin-4-yl}benzenesulfonamide], for which the “CLblood, calculated blood clearance” value with rat hepatocytes (hepatocytes) was 1.7 mL/min/kg. The “Fmax, maximum possible bioavailability” value in the series on rat hepatocytes is listed as 97%. The pIC50 in series [2] was 9.40.

In the case of `CNS(=O)(=O)c1cc(C#N)ccc1[C@H]1NC(=O)N(c2cccc(C(F)(F)F)c2)C(C)=C1C#N` [Example 2, 5-Cyano-2-{(4S)-5-cyano-6-methyl-2-oxo-1-[3-(trifluoromethyl)phenyl]-1,2,3,4-tetrahydropyrimidin-4-yl}-N-methylbenzenesulfonamide], in the series with rat hepatocytes (hepatocytes), the “CLblood, calculated blood clearance” value was 31.7 mL/min/kg. Besides, in the series with rat hepatocytes, the “Fmax, maximum possible bioavailability” value is given as 54%. Also, the pIC50 in series [2] was greater than 9.52.

`CC1=C(C#N)[C@@H](c2ccc(C#N)cc2S(=O)(=O)N(C)C)NC(=O)N1c1cccc(C(F)(F)F)c1` [Example 3, 5-Cyano-2-{(4S)-5-cyano-6-methyl-2-oxo-1-[3-(trifluoromethyl)phenyl]-1,2,3,4-tetrahydropyrimidin-4-yl}-N,N-dimethylbenzenesulfonamide] had a pIC50 in series [2] greater than 9.52.

With `CC1=C(C#N)[C@@H](c2ccc(C#N)cc2S(=O)(=O)N2CCOCC2)NC(=O)N1c1cccc(C(F)(F)F)c1` [Example 4, (4S)-4-[4-Cyano-2-(morpholin-4-ylsulfonyl)phenyl]-6-methyl-2-oxo-1-[3-(trifluoromethyl)phenyl]-1,2,3,4-tetrahydropyrimidine-5-carbonitrile], the pIC50 in series [2] was greater than 9.52.

For `CC1=C(C#N)[C@@H](c2ccc(C#N)cc2S(N)(=O)=O)N(C)C(=O)N1c1cccc(C(F)(F)F)c1` [Example 10, 5-Cyano-2-{(4S)-5-cyano-3,6-dimethyl-2-oxo-1-[3-(trifluoromethyl)phenyl]-1,2,3,4-tetrahydropyrimidin-4-yl}benzenesulfonamide], the pIC50 in series [2] was greater than 9.52.

In general, solubility refers to the concentration that dissolves in the medium under given conditions. High values mean much dissolved substance, low ones little dissolved substance. Consider `CC1=C(C#N)[C@@H](c2ccc(C#N)cc2S(=O)(=O)NCCO)N(C)C(=O)N1c1cccc(C(F)(F)F)c1` [Example 11, 5-Cyano-2-{(4S)-5-cyano-3,6-dimethyl-2-oxo-1-[3-(trifluoromethyl)phenyl]-1,2,3,4-tetrahydropyrimidin-4-yl}-N-(2-hydroxyethyl)benzenesulfonamide], for which, in series [1] (aqueous buffer, kinetic from dmso stock), the concentration in solution (solubility at 24 h) came to 300 µg/mL (≈ 577 µM). Further, the pIC50 in series [2] is greater than 9.52.

As for `CC1=C(C#N)[C@@H](c2ccc(C#N)cc2S(=O)(=O)NCC(N)=O)N(C)C(=O)N1c1cccc(C(F)(F)F)c1` [Example 13, N^2-[(5-Cyano-2-{(4S)-5-cyano-3,6-dimethyl-2-oxo-1-[3-(trifluoromethyl)phenyl]-1,2,3,4-tetrahydropyrimidin-4-yl}phenyl)sulfonyl]glycinamide], the “CLblood, calculated blood clearance” value with rat hepatocytes (hepatocytes) is 31.7 mL/min/kg. For the same molecule, in the series on rat hepatocytes, the “Fmax, maximum possible bioavailability” value turned out to be 54%. This molecule also showed a pIC50 in series [2] greater than 9.52.

Molecule `CC1=C(C#N)[C@@H](c2ccc(C#N)cc2S(=O)(=O)NCCCN2CCCC2=O)NC(=O)N1c1cccc(C(F)(F)F)c1` [Example 14] had a pIC50 in series [2] of 8.35.

The molecule `CC1=C(C#N)[C@@H](c2ccc(C#N)cc2S(=O)(=O)NCC2CCN(C)C2)NC(=O)N1c1cccc(C(F)(F)F)c1` (stereo partly drawn) [Example 21, 5-cyano-2-{(4S)-5-cyano-6-methyl-2-oxo-1-[3-(trifluoromethyl)phenyl]-1,2,3,4-tetrahydropyrimidin-4-yl}-N-[(1-methylpyrrolidin-3-yl)methyl]-benzenesulfonamide] had a pIC50 in series [2] of 9.15.
